Experiments:
α4β1/VCAM-1 = target: T1, α4β1/VCAM-1 (Homo sapiens, UniProt P05556+P13612); test: Static cell adhesion assay, Jurkat cells on VCAM-1 (VLA-4 agonist activity); type: cell-based; conditions: EC50 relative to THI0349 (average 11 uM) run on the same plate; Jurkat cells, 50% FBS
T1 construct: The Jurkat (VCAM-1 assays) and HSB (ICAM-1 assays) cell lines were obtained from American Type Culture Collection; endogenous in cells; host or cells: Jurkat (ATCC)
Method: (§1) For in vitro cell adhesion assays, compounds were dissolved in DMSO to make a series of stock solutions such that a 1:100 dilution in assay buffer would yield the desired final working concentrations in 1% DMSO (vehicle). Human VCAM-1 and ICAM-1 were purchased from R&D Systems (Minneapolis, MN). The Jurkat (VCAM-1 assays) and HSB (ICAM-1 assays) cell lines were obtained from American Type Culture Collection (Manassas, VA) and were maintained in recommended culture media.
(§2) Assays were performed as previously described in Vanderslice et al., (2010), Biochem Biophys Res Commun 400, 619-624; and Vanderslice et al., (2013) J Biol Chem 288, 19414-19428. VCAM-1 or ICAM-1 ligand in 50 μL of 50 mM Tris-HCl (pH 7.4), 150 mM NaCl, (TBS) was added to wells of a 96-well plate and allowed to coat overnight at 4° C. To maximize the window to evaluate agonist activity, a sub-optimal coating concentration of ligand was used, typically 0.5 and 5 μg/mL in 50 μL TBS for VCAM-1 and ICAM-1 respectively. This ligand concentration corresponded approximately to that which would yield <5% adhesion as determined by dose-response curves. Briefly, 2×10^6 cells were labeled for 30 minutes with calcein-AM (Molecular Probes), washed, resuspended in binding buffer, and added to triplicate wells of ligand-coated plates (2×10^5 cells/well) that had been blocked with 2% BSA. After a 30-minute incubation at 37° C., the plates were washed 3 times with binding buffer, the adherent cells were lysed, and fluorescence was measured on a Tecan Safire^2 plate reader. The binding buffer was PBS with 1 mM MgCl2, 50% FBS for α4β1/VCAM-1 assays and PBS with 2 mM MgCl2, 5 mM EGTA, 50% FBS for αLβ2/ICAM-1 assays. EC50 is defined as the concentration of compound required to achieve 50% of the maximal response.

αLβ2/ICAM-1 = target: T2, αLβ2/ICAM-1 (Homo sapiens, UniProt P05107+P20701); test: Static cell adhesion assay, HSB cells on ICAM-1 (LFA-1; LAD); type: cell-based; conditions: RFU of compound / RFU of THI0349, both at the same concentration
T2 construct: The Jurkat (VCAM-1 assays) and HSB (ICAM-1 assays) cell lines were obtained from American Type Culture Collection; endogenous in cells; host or cells: HSB (ATCC)
Method: as §1, §2
In relation to LAD (Leukocyte Adhesion Deficiency), LFA-1 ratios are determined by dividing the relative fluorescence units (RFU) of each compound at a concentration of 3 μM over that of the reference standard of THI0349, also at 3 μM, (RFU Compound/RFU of THI0349). Log Ps were calculated by either Chemdraw® version 12 (CambridgeSoft) or ACD/Chemsketch® (ACD/Labs).

T2 sequence (P20701 26-1170): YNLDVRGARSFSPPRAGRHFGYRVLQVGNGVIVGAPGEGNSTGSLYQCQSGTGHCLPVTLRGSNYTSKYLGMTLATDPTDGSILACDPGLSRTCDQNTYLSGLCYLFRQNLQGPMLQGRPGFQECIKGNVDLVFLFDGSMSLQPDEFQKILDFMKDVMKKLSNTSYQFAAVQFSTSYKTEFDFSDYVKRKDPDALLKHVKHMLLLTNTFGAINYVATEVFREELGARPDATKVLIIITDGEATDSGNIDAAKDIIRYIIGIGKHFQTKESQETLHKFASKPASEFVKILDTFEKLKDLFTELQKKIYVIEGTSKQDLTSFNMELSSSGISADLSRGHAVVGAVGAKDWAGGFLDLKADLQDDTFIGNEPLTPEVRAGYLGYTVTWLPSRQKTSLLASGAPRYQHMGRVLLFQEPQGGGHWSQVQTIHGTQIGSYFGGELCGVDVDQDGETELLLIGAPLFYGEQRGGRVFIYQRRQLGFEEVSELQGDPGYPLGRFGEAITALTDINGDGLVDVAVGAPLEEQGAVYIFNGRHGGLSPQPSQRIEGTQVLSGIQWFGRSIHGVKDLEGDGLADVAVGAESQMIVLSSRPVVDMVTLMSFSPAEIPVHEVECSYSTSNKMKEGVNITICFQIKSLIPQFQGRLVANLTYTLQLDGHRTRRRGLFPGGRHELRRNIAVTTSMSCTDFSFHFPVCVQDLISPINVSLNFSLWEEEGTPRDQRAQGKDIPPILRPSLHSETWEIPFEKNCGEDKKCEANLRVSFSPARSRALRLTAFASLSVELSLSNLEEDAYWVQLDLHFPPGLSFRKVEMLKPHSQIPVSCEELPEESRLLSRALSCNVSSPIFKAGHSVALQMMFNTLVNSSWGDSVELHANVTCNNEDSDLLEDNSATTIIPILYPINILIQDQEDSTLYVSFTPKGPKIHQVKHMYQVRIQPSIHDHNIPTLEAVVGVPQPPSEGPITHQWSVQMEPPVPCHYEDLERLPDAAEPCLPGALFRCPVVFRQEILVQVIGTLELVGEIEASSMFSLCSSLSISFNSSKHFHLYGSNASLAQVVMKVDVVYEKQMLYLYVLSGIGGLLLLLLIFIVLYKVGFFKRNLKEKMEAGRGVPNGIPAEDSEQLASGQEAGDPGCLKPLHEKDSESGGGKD
T2 sequence (P05107 23-769): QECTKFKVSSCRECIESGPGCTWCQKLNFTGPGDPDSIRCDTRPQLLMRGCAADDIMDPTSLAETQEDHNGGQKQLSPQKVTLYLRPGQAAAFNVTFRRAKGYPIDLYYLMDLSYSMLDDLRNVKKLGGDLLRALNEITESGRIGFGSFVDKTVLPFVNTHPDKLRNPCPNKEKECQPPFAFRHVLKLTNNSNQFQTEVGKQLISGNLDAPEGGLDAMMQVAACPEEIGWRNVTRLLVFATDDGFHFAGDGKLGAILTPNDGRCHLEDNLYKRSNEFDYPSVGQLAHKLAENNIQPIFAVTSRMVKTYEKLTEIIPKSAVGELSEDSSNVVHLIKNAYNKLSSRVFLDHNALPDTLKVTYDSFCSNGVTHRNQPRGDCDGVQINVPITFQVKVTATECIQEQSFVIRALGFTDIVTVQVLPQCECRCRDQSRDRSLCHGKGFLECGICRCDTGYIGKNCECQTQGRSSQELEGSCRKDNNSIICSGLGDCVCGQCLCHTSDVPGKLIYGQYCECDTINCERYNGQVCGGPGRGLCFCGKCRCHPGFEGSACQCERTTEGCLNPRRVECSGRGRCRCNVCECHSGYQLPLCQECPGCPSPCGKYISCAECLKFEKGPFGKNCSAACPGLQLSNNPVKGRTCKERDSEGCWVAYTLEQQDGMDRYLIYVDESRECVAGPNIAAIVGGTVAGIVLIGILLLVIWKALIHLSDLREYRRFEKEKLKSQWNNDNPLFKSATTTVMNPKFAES
T1 sequence (P13612 34-1032): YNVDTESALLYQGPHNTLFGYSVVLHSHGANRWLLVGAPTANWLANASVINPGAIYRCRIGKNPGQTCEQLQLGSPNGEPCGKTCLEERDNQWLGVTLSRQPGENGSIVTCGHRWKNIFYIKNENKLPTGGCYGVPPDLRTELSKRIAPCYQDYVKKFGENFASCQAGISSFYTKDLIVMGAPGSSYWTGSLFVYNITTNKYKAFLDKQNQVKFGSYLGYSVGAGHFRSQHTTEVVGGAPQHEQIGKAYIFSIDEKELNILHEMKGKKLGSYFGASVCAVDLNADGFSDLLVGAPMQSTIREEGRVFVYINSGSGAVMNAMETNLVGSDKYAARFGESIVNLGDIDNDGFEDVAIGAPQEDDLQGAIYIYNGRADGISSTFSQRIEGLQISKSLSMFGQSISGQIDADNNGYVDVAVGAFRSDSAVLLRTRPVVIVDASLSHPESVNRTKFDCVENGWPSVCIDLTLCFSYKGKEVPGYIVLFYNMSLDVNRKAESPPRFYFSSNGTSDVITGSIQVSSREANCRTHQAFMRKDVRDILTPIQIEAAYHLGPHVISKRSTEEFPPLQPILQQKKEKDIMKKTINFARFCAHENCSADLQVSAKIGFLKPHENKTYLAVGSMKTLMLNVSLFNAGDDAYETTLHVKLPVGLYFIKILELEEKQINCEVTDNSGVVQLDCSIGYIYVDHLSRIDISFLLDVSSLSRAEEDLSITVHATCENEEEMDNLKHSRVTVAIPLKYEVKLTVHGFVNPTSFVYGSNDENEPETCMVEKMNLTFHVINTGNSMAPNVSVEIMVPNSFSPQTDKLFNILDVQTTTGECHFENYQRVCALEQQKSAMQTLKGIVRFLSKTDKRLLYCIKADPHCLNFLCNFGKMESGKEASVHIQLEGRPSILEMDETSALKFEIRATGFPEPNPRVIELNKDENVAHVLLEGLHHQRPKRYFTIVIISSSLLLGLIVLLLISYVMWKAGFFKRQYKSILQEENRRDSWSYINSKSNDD
T1 sequence (P05556 21-798): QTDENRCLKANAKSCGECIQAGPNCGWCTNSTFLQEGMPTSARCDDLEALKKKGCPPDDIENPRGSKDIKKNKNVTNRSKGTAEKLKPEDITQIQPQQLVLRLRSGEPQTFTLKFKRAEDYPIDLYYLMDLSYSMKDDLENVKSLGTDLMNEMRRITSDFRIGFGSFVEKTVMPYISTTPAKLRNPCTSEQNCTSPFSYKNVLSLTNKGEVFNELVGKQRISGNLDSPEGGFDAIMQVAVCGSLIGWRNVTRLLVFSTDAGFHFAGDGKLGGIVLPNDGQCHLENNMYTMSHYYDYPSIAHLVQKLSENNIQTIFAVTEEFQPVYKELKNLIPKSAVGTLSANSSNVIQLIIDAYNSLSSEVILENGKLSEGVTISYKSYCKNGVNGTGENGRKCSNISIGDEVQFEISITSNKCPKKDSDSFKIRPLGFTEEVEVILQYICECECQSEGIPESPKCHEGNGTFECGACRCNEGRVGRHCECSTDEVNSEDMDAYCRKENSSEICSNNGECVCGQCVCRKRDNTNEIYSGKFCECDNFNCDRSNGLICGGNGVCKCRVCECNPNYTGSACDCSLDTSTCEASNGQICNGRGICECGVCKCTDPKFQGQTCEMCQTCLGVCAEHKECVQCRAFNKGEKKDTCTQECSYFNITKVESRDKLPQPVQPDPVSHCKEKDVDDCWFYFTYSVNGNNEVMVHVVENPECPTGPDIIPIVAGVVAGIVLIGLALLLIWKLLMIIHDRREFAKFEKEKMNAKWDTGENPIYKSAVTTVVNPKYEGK

| SMILES | LAD Raw Fluorescence Units against LFA-1; Dose 3 µM; Ratio of raw counts Compound/THI0349 (αLβ2/ICAM-1) | Group against VCAM (α4β1/VCAM-1) |
| --- | --- | --- |
| COc1ccc(CCCOCc2coc(N(Cc3cccs3)Cc3cccs3)n2)cc1 [Compound 24, 4-((3-(4-methoxyphenyl)propoxy)methyl)-N,N-bis(thiophen-2-ylmethyl)oxazol-2-amine] | 0.85 | II (Group II is more than twice that of THI0349 but less than five times THI0349's EC50) |
| OCc1coc(N(Cc2cccs2)Cc2cccs2)n1 [Compound 25, (2-(bis(thiophen-2-ylmethyl)amino)oxazol-4-yl)methanol] | 0.74 | II (Group II is more than twice that of THI0349 but less than five times THI0349's EC50) |
| COc1ccc(CN(Cc2ccc(OC)cc2)c2nc(CO)co2)cc1 [Compound 26, (2-(bis(4-methoxybenzyl)amino)oxazol-4-yl)methanol] | 0.79 | I (Group I maintains at least the same potency or better up to more than twice that of the EC50 of THI0349 ran on the same plate) |
| COc1cccc(CN(Cc2cccc(OC)c2)c2cnc(CCOc3ccccc3)o2)c1 [Compound 27, N,N-bis(3-methoxybenzyl)-2-(2-phenoxyethyl)oxazol-5-amine] | 0.28 | III (Group III more than five times the EC50 of THI0349) |
| COc1cccc(CN(Cc2cccc(OC)c2)c2nc(C)cs2)c1 [Compound 29, N,N-bis(3-methoxybenzyl)-4-methylthiazol-2-amine] | 0.88 | III (Group III more than five times the EC50 of THI0349) |
| COCCOc1cccc(CN(Cc2cccc(OCCOC)c2)c2nc(C)cs2)c1 [Compound 30, N,N-bis(3-(2-methoxyethoxy)benzyl)-4-methylthiazol-2-amine] | 1.2 | III (Group III more than five times the EC50 of THI0349) |
| COc1cccc(CN(Cc2cccc(OC)c2)c2nc(COCCO)cs2)c1 [Compound 33, 2-((2-(bis(3-methoxybenzyl)amino)thiazol-4-yl)methoxy)ethanol] | 0.31 | III (Group III more than five times the EC50 of THI0349) |
| COc1ccc(CN(Cc2ccc(OC)cc2)c2nc(COCCOCCO)cs2)cc1 [Compound 34, 2-(2-((2-(bis(4-methoxybenzyl)amino)thiazol-4-yl)methoxy)ethoxy)ethanol] | 0.34 | III (Group III more than five times the EC50 of THI0349) |
| COc1ccc(CN(Cc2ccc(OC)cc2)c2nc(COCCOCCOCc3csc(N(Cc4ccc(OC)cc4)Cc4ccc(OC)cc4)n3)cs2)cc1 [Compound 35, 4,4′-(2,2′-oxybis(ethane-2,1-diyl)bis(oxy))bis(methylene)bis(N,N-bis(4-methoxybenzyl)thiazol-2-amine)] | 0.98 | II (Group II is more than twice that of THI0349 but less than five times THI0349's EC50) |
| COc1cccc(COCc2csc(N(Cc3cccc(OC)c3)Cc3cccc(OC)c3)n2)c1 [Compound 38, N,N-bis(3-methoxybenzyl)-4-((3-methoxybenzyloxy)methyl)thiazol-2-amine] | 0.16 | III (Group III more than five times the EC50 of THI0349) |
| COc1ccc(CCCOCc2csc(N(Cc3cccc(OC)c3)Cc3cccc(OC)c3)n2)cc1 [Compound 39, N,N-bis(3-methoxybenzyl)-4-((3-(4-methoxyphenyl)propoxy)methyl)thiazol-2-amine] | 0.23 | III (Group III more than five times the EC50 of THI0349) |
| COc1ccc(CCOCc2csc(N(Cc3cccc(OC)c3)Cc3cccc(OC)c3)n2)cc1 [Compound 40, N,N-bis(3-methoxybenzyl)-4-((4-methoxyphenethoxy)methyl)thiazol-2-amine] | 0.4 | III (Group III more than five times the EC50 of THI0349) |

Second part, led by results:

| LAD Raw Fluorescence Units against LFA-1; Dose 3 µM; Ratio of raw counts Compound/THI0349 (αLβ2/ICAM-1) | SMILES | Group against VCAM (α4β1/VCAM-1) |
| --- | --- | --- |
| 1.3 | COc1cccc(CN(Cc2cccc(OC)c2)c2nc(COCCOCCOc3cccc(N(C)C)c3)cs2)c1 [Compound 41, 4-((2-(2-(3-(dimethylamino)phenoxy)ethoxy)ethoxy)methyl)-N,N-bis(3-methoxybenzyl)thiazol-2-amine] | I (Group I maintains at least the same potency or better up to more than twice that of the EC50 of THI0349 ran on the same plate) |
| 1.6 | COc1cccc(CN(Cc2cccc(OC)c2)c2nc(COCCOCCOc3cccc(OC)c3)cs2)c1 [Compound 42, N,N-bis(3-methoxybenzyl)-4-((2-(2-(3-methoxyphenoxy)ethoxy)ethoxy)methyl)thiazol-2-amine] | I (Group I maintains at least the same potency or better up to more than twice that of the EC50 of THI0349 ran on the same plate) |
| 0.80 | COc1cccc(CN(Cc2cccc(OC)c2)c2nc(COCCOCCOc3ccccc3)cs2)c1 [Compound 43, N,N-bis(3-methoxybenzyl)-4-((2-(2-phenoxyethoxy)ethoxy)methyl)thiazol-2-amine] | I (Group I maintains at least the same potency or better up to more than twice that of the EC50 of THI0349 ran on the same plate) |
| 0.77 | COc1cccc(CN(Cc2cccc(OC)c2)c2nc(COCCOCCOc3ccc(Cl)cc3)cs2)c1 [Compound 44, 4-((2-(2-(4-chlorophenoxy)ethoxy)ethoxy)methyl)-N,N-bis(3-methoxybenzyl)thiazol-2-amine] | I (Group I maintains at least the same potency or better up to more than twice that of the EC50 of THI0349 ran on the same plate) |
| 0.76 | COc1cccc(CN(Cc2cccc(OC)c2)c2nc(COCCOCCOc3cccc(C#N)c3)cs2)c1 [Compound 45, 3-(2-(2-((2-(bis(3-methoxybenzyl)amino)thiazol-4-yl)methoxy)ethoxy)ethoxy)benzonitrile] | I (Group I maintains at least the same potency or better up to more than twice that of the EC50 of THI0349 ran on the same plate) |
| 1.5 | COc1cccc(CN(Cc2cccc(OC)c2)c2nc(COCCOCCOc3ccc(N(C)C)cc3)cs2)c1 [Compound 46, 4-((2-(2-(4-(dimethylamino)phenoxy)ethoxy)ethoxy)methyl)-N,N-bis(3-methoxybenzyl)thiazol-2-amine] | I (Group I maintains at least the same potency or better up to more than twice that of the EC50 of THI0349 ran on the same plate) |
| 0.7 | COc1cccc(CN(Cc2cccc(OC)c2)c2nc(COCCOc3cccc(OC)c3)cs2)c1 [Compound 47, N,N-bis(3-methoxybenzyl)-4-((2-(3-methoxyphenoxy)ethoxy)methyl)thiazol-2-amine] | I (Group I maintains at least the same potency or better up to more than twice that of the EC50 of THI0349 ran on the same plate) |
| 0.43 | COc1cccc(CN(Cc2cccc(OC)c2)c2nc(COCCOc3cccc(N(C)C)c3)cs2)c1 [Compound 48, 4-((2-(3-(dimethylamino)phenoxy)ethoxy)methyl)-N,N-bis(3-methoxybenzyl)thiazol-2-amine] | I (Group I maintains at least the same potency or better up to more than twice that of the EC50 of THI0349 ran on the same plate) |
| 0.63 | COc1cccc(CN(Cc2cccc(OC)c2)c2nc(COCCOc3ccc(Cl)cc3)cs2)c1 [Compound 49, 4-((2-(4-chlorophenoxy)ethoxy)methyl)-N,N-bis(3-methoxybenzyl)thiazol-2-amine] | II (Group II is more than twice that of THI0349 but less than five times THI0349's EC50) |

Reference: patent US20240360113A1, “AMINOARYL-INTEGRIN AGONISTS COMPOUNDS” (Texas Heart Institute, priority 2021, published 2024)
